Each structure is given as a SMILES string. Like-named read-outs stand apart in the source and are kept apart here.

Experiment [1] is described as follows: Nanoindentation (nanohardness and Young's modulus) of acid-etched enamel blocks. The conditions noted are these: hydrolyzed wheat protein 0.5 weight %, fluoride 500 ppm; three cycles of 30 minutes treatment + 22 to 24 hours AS. Further details: species or system bovine. Here is the method: Enamel blocks are prepared as described in Example 1. Acid-etching is achieved by placing the enamel blocks in 1% citric acid solution (pH 3.8) for 15 minutes. The nanohardness and Young's modulus at 500 nm depth are measured prior to and after etching. Etched enamel blocks are incubated with a solution of hydrolyzed wheat protein (GLUADIN W20), at a concentration of 0.5 weight %, for 30 minutes (2 ml solution/block), followed by an incubation with AS solution as described in Example 1, for 22 to 24 hours. The hydrolyzed wheat protein and AS incubation steps are repeated two additional times, after which the enamel blocks are rinsed with DI water and air-dried. The nanohardness and Young's modulus of the treated enamel blocks are measured at 500 nm depth to assess the enamel repair effects of the hydrolyzed wheat protein. A solution of 500 ppm fluoride is used as a positive control for the experiment. The results are illustrated in Tables 2 and 3.

The conditions of experiment [2]: surface microhardness loss, 4 day cycling, four 10 minute treatments per day.
Method: The selected enamel blocks are then the enamel blocks are pre-treated and subjected to 4 day cycling as described below, using DI water (negative control), 500 ppm F (positive control) and 0.2% wheat hydrolysate (Gluadin W20)+500 ppm F (test material) prepared as described in the previous example. The microhardness of the enamel blocks is measured again as final (MHfinal).
Each enamel block is sanitized in ethanol twice then washed in sterile DI water three times. Then each enamel block is pre-incubated in saliva supernatant at 4° C. overnight to form pellicle on the enamel surface.
Day Two to Five—Dentifrice treatment, demineralization and remineralization: Unstimulated whole saliva is collected from donors, who refrain from eating and oral hygiene in the morning. The saliva is pooled and centrifuged at 8000 rpm for 10 minutes. […] The sediment is washed once using sterile DI water and centrifuged at 8000 rpm for 10 minutes. The water supernatant is removed. The washed sediment is then diluted in the salivary supernatant TSB mixture to an OD (610 nm)=0.5. […]
Surface microhardness loss (SMHL, Demin %) as a percent was calculated as (1−(Microhardnessfinal/Microhardnesssound))*100.
Experiment [3] is described as follows: Microhardness (Knoop) remineralization assay on etched enamel blocks. The conditions noted are these: hydrolysate filtrate with CPC 0.1% and fluoride (NaF) as stated in the label. On the set-up: species or system bovine. Here is the method: Enamel blocks are prepared as described in Example 1. […] Blocks with a Knoop hardness (KH) of at least 300 are selected. The blocks are etched by immersing in 30% phosphoric acid for 15 seconds. The KH on the left and right sides of the blocks are measured. Subsequently, the right side of the blocks are covered with tape prior to treating the blocks with 20 mg/ml solution of hydrolyzed wheat protein (Gluadin W20 from BASF) or hydrolyzed rice protein (GLUADIN R from BASF), each neutralized as described in example 1, for two terms of 30 minutes. (The tape on the right hand side of the blocks prevents exposure of this side to the protein solution and serves as an internal control). The blocks are washed twice with DI water @ 5 minutes, 500 PRM between the two treatments and after the second treatment. Subsequently, the tape is removed and the blocks are incubated in AS solution (0.2 mM MgCl2, 1 mM CaCl2.H2O, 20 mM HEPES buffer, 4 mM KH2PO4, 16 mM KCl, 4.5 mM NH4Cl, 300 ppm NaF, 0.05 wt. % NaN3, at pH 7 (adjusted with 1M NaOH)) for 7 days. After rinsing the enamel blocks with DI water and air-drying the rinsed blocks, microhardness is measured again. Surface microhardness regain (SMHL, Remin %) as a percent is calculated as […]

For experiment [4] the following is noted: evaluation with weight adjustment; two 30 minute ex vivo treatments, 7 days in situ in retainer.
Method: A treatment phase is completed ex vivo. Initial microhardness (MH) measurements are taken on sound, bovine enamel blocks (MHBaseline). The blocks are then etched with 30% phosphoric acid until there was a 40% change in the microhardness reading from Baseline. The microhardness is recorded as etched (Equation 1, MHEtched). Each etched enamel block is then immersed in a 2 ml solution of pre-treated 0.2% wheat hydrolysate (Gluadin W20)+500 ppm F prepared as described above, or a 2 ml solution of 500 ppm F, for 30 minutes. After 30 minutes, the blocks are washed twice with DI water at 500 RPM for 5 minutes, and then dried with a paper towel. This treatment cycle is repeated. The blocks are then secured within the designated location on a retainer for placement in the oral cavity of a subject. Six enamel blocks are placed in each retainer. Pre-punched holes on the retainer allow saliva fluid to contact etched enamel and to provide minerals for remineralization. […] The treated and control enamel blocks are randomized on the left or right side of the retainer. The retainers are then stored in a refrigerator until Day 1 of the study.
Twenty-six subjects are included in this randomized, blinded study. […] After 7 days, the enamel blocks are taken out of the appliance to take the final microhardness measurements (MHRemineralized) Demineralization and remineralization are calculated as follows: […]

On to `F` [Fluoride, NaF], for which the “Nanohardness Repair at 500 nm depth (%)” value in experiment [1] is reported as 31.12%. Besides, the “Young's Modulus Repair at 500 nm depth (%)” value in experiment [1] was 48.50%. The Demineralization percentage in experiment [2] (0.2% sucrose) is given as 8.36%; in experiment [2] (0.4% sucrose), 19.99%. Further, the Remineralization % is recorded as 11.73% in experiment [3] (listed as Buffer + 250 ppm fluoride) and 15.87% in experiment [3] (listed as Buffer + 500 ppm fluoride). In addition, the “% Remin” value in experiment [4] is reported as 27.6%.
